Test system: KRAS PDC tumor spheroids (HUVEC+MSC), viability
Test: Anticancer human tumor 254851-301-R-J1-PDC patient-derived colon carcinoma cell line growth inhibition [KRAS2]
Conditions: for IC50: curve of first compound; for viability, T/C: stronger effect = lower value
Outline: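 KRAS-mutant tumor cells were grown as spheroids with HUVEC endothelial cells and human MSCs as stroma. Targeted agents were tested alone and with KRAS pathway inhibitors. Doses started at or near clinical Cmax, or 10 microM, descending half-log.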

[1] = second compound 0.1 µM, first compound 0.0316 µM
[2] = second compound 0.1 µM, first compound 0.1 µM
[3] = second compound 0.1 µM, first compound 0.316 µM
[4] = second compound 0.1 µM, first compound 1 µM
[5] = second compound 0.1 µM, first compound 3.16 µM
[6] = second compound 0.1 µM, first compound 10 µM
[7] = second compound 0.316 µM, first compound 0.0316 µM
[8] = second compound 0.316 µM, first compound 0.1 µM
[9] = second compound 0.316 µM, first compound 0.316 µM
[10] = second compound 0.316 µM, first compound 1 µM
[11] = second compound 0.316 µM, first compound 3.16 µM
[12] = second compound 0.316 µM, first compound 10 µM
[13] = second compound 1 µM, first compound 0.0316 µM
[14] = second compound 1 µM, first compound 0.1 µM
[15] = second compound 1 µM, first compound 0.316 µM
[16] = second compound 1 µM, first compound 1 µM
[17] = second compound 1 µM, first compound 3.16 µM
[18] = second compound 1 µM, first compound 10 µM
[19] = second compound 3.16 µM, first compound 0.0316 µM
[20] = second compound 3.16 µM, first compound 0.1 µM
[21] = second compound 3.16 µM, first compound 0.316 µM
[22] = second compound 3.16 µM, first compound 1 µM
[23] = second compound 3.16 µM, first compound 3.16 µM
[24] = second compound 3.16 µM, first compound 10 µM
[25] = second compound 10 µM, first compound 0.0316 µM
[26] = second compound 10 µM, first compound 0.1 µM
[27] = second compound 10 µM, first compound 0.316 µM
[28] = second compound 10 µM, first compound 1 µM
[29] = second compound 10 µM, first compound 3.16 µM
[30] = second compound 10 µM, first compound 10 µM
[31] = second compound 0.1 µM, first compound 0.000316 µM
[32] = second compound 0.1 µM, first compound 0.001 µM
[33] = second compound 0.1 µM, first compound 0.00316 µM
[34] = second compound 0.1 µM, first compound 0.01 µM
[35] = second compound 0.316 µM, first compound 0.000316 µM
[36] = second compound 0.316 µM, first compound 0.001 µM
[37] = second compound 0.316 µM, first compound 0.00316 µM
[38] = second compound 0.316 µM, first compound 0.01 µM
[39] = second compound 1 µM, first compound 0.000316 µM
[40] = second compound 1 µM, first compound 0.001 µM
[41] = second compound 1 µM, first compound 0.00316 µM
[42] = second compound 1 µM, first compound 0.01 µM
[43] = second compound 3.16 µM, first compound 0.000316 µM
[44] = second compound 3.16 µM, first compound 0.001 µM
[45] = second compound 3.16 µM, first compound 0.00316 µM
[46] = second compound 3.16 µM, first compound 0.01 µM
[47] = second compound 10 µM, first compound 0.000316 µM
[48] = second compound 10 µM, first compound 0.001 µM
[49] = second compound 10 µM, first compound 0.00316 µM
[50] = second compound 10 µM, first compound 0.01 µM
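Note: spheroids exposed to compounds for seven days before readout.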
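Throughout, for viability, T/C: 100% = DMSO vehicle control luminescence of the spheroids.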

Structure (SMILES)	IC50 (second compound 0.1 µM) [nM]	IC50 (second compound 0.316 µM) [nM]	IC50 (second compound 1 µM) [nM]	IC50 (second compound 3.16 µM) [nM]	IC50 (second compound 10 µM) [nM]	viability, T/C [1] [%]	viability, T/C [2] [%]	viability, T/C [3] [%]	viability, T/C [4] [%]	viability, T/C [7] [%]	viability, T/C [8] [%]	viability, T/C [9] [%]	viability, T/C [10] [%]	viability, T/C [13] [%]	viability, T/C [14] [%]	viability, T/C [15] [%]	viability, T/C [19] [%]	viability, T/C [20] [%]	viability, T/C [25] [%]	viability, T/C [26] [%]	also measured
CC(C)NCC(C(=O)N1CCN(c2ncnc3c2C(C)CC3O)CC1)c1ccc(Cl)cc1 (stereo not given) + CC1OCC2(CCN(c3cnc(Sc4ccnc(N)c4Cl)c(N)n3)CC2)C1N	> 10000	> 10000	> 10000	> 10000	> 10000	104	97.1	103	93.2	93	86.6	75.4	79.6	72.4	72.4	83.1	58.4	68.9	58.6	64.5	viability, T/C [5]: 102%; viability, T/C [6]: 85.3%; viability, T/C [11]: 79.5%; viability, T/C [12]: 88.4%; viability, T/C [16]: 75.6%; viability, T/C [17]: 69.6%; viability, T/C [18]: 68.5%; viability, T/C [21]: 64.9%; viability, T/C [22]: 66.4%; viability, T/C [23]: 67.4%; viability, T/C [24]: 70.8%; viability, T/C [27]: 65.7%; viability, T/C [28]: 60.9%; viability, T/C [29]: 55.9%; viability, T/C [30]: 58.4%
CC(C)n1nc(-c2ccc3oc(N)nc3c2)c2c(N)ncnc21 + CC1OCC2(CCN(c3cnc(Sc4ccnc(N)c4Cl)c(N)n3)CC2)C1N	17.5	20.5	18.6	15.8	11.3	29.4	19.9	–	–	34.4	23.2	–	–	36.8	19.6	–	30.2	18.4	31.3	18.1	viability, T/C [31]: 103%; viability, T/C [32]: 98.2%; viability, T/C [33]: 89.3%; viability, T/C [34]: 69.8%; viability, T/C [35]: 101%; viability, T/C [36]: 99.7%; viability, T/C [37]: 88.8%; viability, T/C [38]: 75.3%; viability, T/C [39]: 87.1%; viability, T/C [40]: 78.5%; viability, T/C [41]: 84.5%; viability, T/C [42]: 64.8%; viability, T/C [43]: 74.7%; viability, T/C [44]: 72.5%; viability, T/C [45]: 72.3%; viability, T/C [46]: 63.1%; viability, T/C [47]: 65%; viability, T/C [48]: 71.7%; viability, T/C [49]: 66.6%; viability, T/C [50]: 50.9%
CC1(C)CCC(CN2CCN(c3ccc(C(=O)NS(=O)(=O)c4ccc(NCC5CCOCC5)c([N+](=O)[O-])c4)c(Oc4cnc5[nH]ccc5c4)c3)CC2)=C(c2ccc(Cl)cc2)C1 + CC1OCC2(CCN(c3cnc(Sc4ccnc(N)c4Cl)c(N)n3)CC2)C1N	> 10000	> 10000	> 10000	5560	2510	100	104	96.7	100	83.8	91	84.3	84.1	85.1	89.5	78.6	65.3	73.9	64.1	66.1	viability, T/C [5]: 97.1%; viability, T/C [6]: 98.4%; viability, T/C [11]: 84.3%; viability, T/C [12]: 65.7%; viability, T/C [16]: 88.6%; viability, T/C [17]: 80.7%; viability, T/C [18]: 54%; viability, T/C [21]: 65.3%; viability, T/C [22]: 69%; viability, T/C [23]: 66.3%; viability, T/C [24]: 33%; viability, T/C [27]: 69.8%; viability, T/C [28]: 62.2%; viability, T/C [29]: 46.6%; viability, T/C [30]: 3.55%
CCN1CCN(Cc2ccc(Nc3ncc(F)c(-c4cc(F)c5nc(C)n(C(C)C)c5c4)n3)nc2)CC1 + CC1OCC2(CCN(c3cnc(Sc4ccnc(N)c4Cl)c(N)n3)CC2)C1N	526	483	336	48.2	100	99.2	92.4	61.7	35.3	87.5	75.5	62.6	30.6	81.2	69.2	52.5	56.6	44	54.8	51.3	viability, T/C [33]: 94.5%; viability, T/C [34]: 92.5%; viability, T/C [37]: 93.9%; viability, T/C [38]: 91.2%; viability, T/C [41]: 82.7%; viability, T/C [42]: 94.3%; viability, T/C [16]: 28.8%; viability, T/C [45]: 54.2%; viability, T/C [46]: 49.7%; viability, T/C [21]: 28.6%; viability, T/C [22]: 26.8%; viability, T/C [49]: 62.5%; viability, T/C [50]: 65.8%; viability, T/C [27]: 35.5%; viability, T/C [28]: 13.5%
COc1cc2nccc(Oc3ccc(NC(=O)C4(C(=O)Nc5ccc(F)cc5)CC4)cc3)c2cc1OC + CC1OCC2(CCN(c3cnc(Sc4ccnc(N)c4Cl)c(N)n3)CC2)C1N	9270	9860	6690	> 10000	6020	100	103	95.6	112	98.7	112	100	90.5	85.2	92.4	91.7	69.7	84.4	77.8	75.6	viability, T/C [5]: 102%; viability, T/C [6]: 46.3%; viability, T/C [11]: 84.4%; viability, T/C [12]: 48.7%; viability, T/C [16]: 80.3%; viability, T/C [17]: 71.6%; viability, T/C [18]: 38.7%; viability, T/C [21]: 82.3%; viability, T/C [22]: 72.1%; viability, T/C [23]: 62.3%; viability, T/C [24]: 56.5%; viability, T/C [27]: 74.4%; viability, T/C [28]: 68.1%; viability, T/C [29]: 63.9%; viability, T/C [30]: 40.2%
Cn1ncnc1[C@H]1c2n[nH]c(=O)c3cc(F)cc(c23)N[C@@H]1c1ccc(F)cc1 + CC1OCC2(CCN(c3cnc(Sc4ccnc(N)c4Cl)c(N)n3)CC2)C1N	> 100	> 100	> 100	> 100	> 100	101	98.9	–	–	78.3	90.6	–	–	83.9	80.9	–	76.9	74.1	67.1	57.2	viability, T/C [31]: 98%; viability, T/C [32]: 102%; viability, T/C [33]: 100%; viability, T/C [34]: 98%; viability, T/C [35]: 89.5%; viability, T/C [36]: 93.8%; viability, T/C [37]: 79%; viability, T/C [38]: 78.8%; viability, T/C [39]: 82.4%; viability, T/C [40]: 85.2%; viability, T/C [41]: 75.1%; viability, T/C [42]: 83.6%; viability, T/C [43]: 75.1%; viability, T/C [44]: 77.4%; viability, T/C [45]: 70.5%; viability, T/C [46]: 74.5%; viability, T/C [47]: 68.5%; viability, T/C [48]: 67.7%; viability, T/C [49]: 63.7%; viability, T/C [50]: 57.1%

From PubChem BioAssay AID1963868 (Molecular Pharmacology Branch, DTP, NCI, 2024)
